Key:
Assay in all cases: relative viability (nuclei count vs DMSO), 5 days (fraction); higher = more cells survive
Bexarotene + Palbociclib = compound: C=C(c1ccc(C(=O)O)cc1)c1cc2c(cc1C)C(C)(C)CCC2(C)C [Bexarotene] + CC(=O)c1c(C)c2cnc(Nc3ccc(N4CCNCC4)cn3)nc2n(C2CCCC2)c1=O [Palbociclib] (partner 0.5 µM)
How it was run: (§1)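 Nuclei were stained with Hoechst during a one-step fixation (final 0.05% Triton X-100, 1% formaldehyde, 1 ug/ml Hoechst) carried out 5 days after dosing, then counted on 4× images. The cells, lung cancer lines in 1536-well plates, had been dosed by pin tool the day after seeding with one drug alone or a fixed anchor-drug dose plus five library-drug doses (not always all listed) in √10 steps. Relative viability is the nuclei count in treated wells divided by that in vehicle wells, and each value is the median of duplicate plates.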

Bexarotene + Alpelisib = compound: C=C(c1ccc(C(=O)O)cc1)c1cc2c(cc1C)C(C)(C)CCC2(C)C [Bexarotene] + Cc1nc(NC(=O)N2CCC[C@H]2C(N)=O)sc1-c1ccnc(C(C)(C)C(F)(F)F)c1 [Alpelisib] (partner 2 µM)
How it was run: as §1

Bexarotene + Pemetrexed = compound: C=C(c1ccc(C(=O)O)cc1)c1cc2c(cc1C)C(C)(C)CCC2(C)C [Bexarotene] + Nc1nc2[nH]cc(CCc3ccc(C(=O)N[C@@H](CCC(=O)O)C(=O)O)cc3)c2c(=O)[nH]1 [Pemetrexed] (partner 0.2 µM)
How it was run: as §1

Bexarotene + Olaparib = compound: C=C(c1ccc(C(=O)O)cc1)c1cc2c(cc1C)C(C)(C)CCC2(C)C [Bexarotene] + O=C(c1cc(Cc2n[nH]c(=O)c3ccccc23)ccc1F)N1CCN(C(=O)C2CC2)CC1 [Olaparib] (partner 8 µM)
How it was run: as §1

Cell Line	relative viability (Bexarotene + Palbociclib; first compound 0.08 µM)	relative viability (Bexarotene + Palbociclib; first compound 0.253 µM)	relative viability (Bexarotene + Palbociclib; first compound 0.8 µM)	relative viability (Bexarotene + Palbociclib; first compound 2.53 µM)	relative viability (Bexarotene + Palbociclib; first compound 8 µM)	relative viability (Bexarotene + Alpelisib; first compound 0.08 µM)	relative viability (Bexarotene + Alpelisib; first compound 0.253 µM)	relative viability (Bexarotene + Alpelisib; first compound 0.8 µM)	relative viability (Bexarotene + Alpelisib; first compound 2.53 µM)	relative viability (Bexarotene + Alpelisib; first compound 8 µM)	relative viability (Bexarotene + Pemetrexed; first compound 0.08 µM)	relative viability (Bexarotene + Pemetrexed; first compound 0.253 µM)	relative viability (Bexarotene + Pemetrexed; first compound 0.8 µM)	relative viability (Bexarotene + Pemetrexed; first compound 2.53 µM)	relative viability (Bexarotene + Pemetrexed; first compound 8 µM)	relative viability (Bexarotene + Olaparib; first compound 0.08 µM)	relative viability (Bexarotene + Olaparib; first compound 0.253 µM)	relative viability (Bexarotene + Olaparib; first compound 0.8 µM)	relative viability (Bexarotene + Olaparib; first compound 2.53 µM)	relative viability (Bexarotene + Olaparib; first compound 8 µM)
LXF-289	0.636	0.63	0.605	0.593	0.639	1.04	1.1	1.06	1.04	0.983	1.04	1.12	1.16	0.974	1.04	1.21	1.16	1.1	1.06	1.2
NCI-H23	0.554	0.567	0.571	0.555	0.543	0.812	0.782	0.551	0.829	0.656	0.948	0.715	0.669	0.626	0.686	0.344	0.341	0.289	0.294	0.3
NCI-H322M	0.437	0.469	0.487	0.531	0.532	0.846	0.881	0.809	0.771	0.874	0.698	0.611	0.574	0.626	0.695	0.771	0.826	0.788	0.834	0.871
NCI-H358	0.129	0.138	0.154	0.124	0.138	1.07	0.881	0.579	1.03	0.923	0.182	0.184	0.144	0.167	0.158	0.855	0.596	0.573	0.625	0.551
NCI-H441	0.295	0.228	0.256	0.243	0.23	1.09	1.06	0.727	–	0.841	0.268	0.319	0.26	0.257	0.249	0.608	0.61	0.628	0.599	0.495
NCI-H460	0.147	0.156	0.237	0.105	0.158	0.654	0.733	0.539	0.596	0.519	0.062	0.0605	0.058	0.0661	0.0586	0.54	0.568	0.409	0.536	0.492
NCI-H520	0.271	0.182	0.198	0.229	0.207	0.99	0.775	0.708	0.826	0.803	0.799	0.663	0.717	0.797	0.708	0.368	0.347	0.313	0.316	0.332
NCI-H647	0.467	0.358	0.443	0.367	0.369	1.06	1.15	1.13	1.1	0.843	0.177	0.155	0.153	0.157	0.174	0.725	0.629	0.64	0.447	0.464
NCI-H650	0.306	0.286	0.294	0.311	0.339	1.18	1.06	1.08	1.06	1	1.09	0.887	0.882	0.832	0.918	0.325	0.432	0.354	0.356	0.382
NCI-H661	0.407	0.422	0.447	0.401	0.405	0.664	0.587	0.776	0.5	0.645	1.05	0.91	0.892	0.872	0.869	0.769	0.756	0.73	0.751	0.707
NCI-H838	0.23	0.209	0.176	0.216	0.245	1.1	1.11	1.14	1.08	1.06	0.275	0.254	0.272	0.251	0.249	0.809	0.784	0.74	0.725	0.745
NCI-H1355	0.422	0.387	0.384	0.446	0.434	0.957	0.894	0.765	0.916	0.876	1.14	1.15	0.983	1.13	1.01	0.805	0.76	0.781	0.785	0.778
NCI-H1395	0.583	0.638	0.615	0.618	0.618	1.18	1.06	0.93	1.03	1.08	0.885	0.929	0.808	0.9	0.931	0.441	0.543	0.476	0.459	0.504
NCI-H1437	0.317	0.306	0.294	0.291	0.286	1.02	1.06	0.946	1.11	0.829	0.352	0.302	0.338	0.296	0.322	0.613	0.638	0.599	0.623	0.597
NCI-H1651	0.531	0.521	0.533	0.537	0.534	1	1	1.09	0.997	0.921	0.709	0.487	0.61	0.617	0.622	0.201	0.226	0.208	0.206	0.197
NCI-H1666	0.618	0.746	0.545	0.631	0.565	1	0.877	0.862	0.897	0.761	0.8	0.912	0.736	0.844	0.7	0.714	0.754	0.694	0.691	0.63
NCI-H1734	0.333	0.33	0.292	0.282	0.318	0.718	0.708	0.652	0.637	0.633	0.438	0.419	0.454	0.361	0.363	0.669	0.648	0.573	0.709	0.633
NCI-H1755	0.463	0.479	0.438	0.48	0.44	0.917	1.05	0.94	0.876	0.917	0.451	0.458	0.498	0.452	0.425	0.982	0.957	1.03	0.951	0.887
NCI-H1792	0.706	0.611	0.616	0.588	0.607	0.534	0.697	0.532	0.585	0.413	1.1	0.848	0.487	0.482	0.455	0.229	0.435	0.393	0.337	0.32
NCI-H1793	0.31	0.318	0.284	0.264	0.327	0.956	0.81	0.81	0.727	0.824	0.972	0.828	0.79	0.845	0.852	1.06	0.966	0.787	0.903	0.695
NCI-H1915	0.555	0.5	0.442	0.533	0.423	1.17	1.06	1.04	1	0.95	0.519	0.492	0.54	0.473	0.439	0.265	0.262	0.284	0.278	0.242
NCI-H1944	0.419	0.427	0.369	0.379	0.345	1.08	1.05	0.913	0.954	0.867	0.822	0.758	0.857	0.724	0.75	0.625	0.573	0.617	0.602	0.494
NCI-H1975	0.667	0.578	0.575	0.616	0.547	0.705	0.783	0.665	0.669	0.836	0.327	0.331	0.305	0.334	0.323	1.03	0.906	0.783	0.851	0.836
NCI-H1993	0.654	0.668	0.597	0.693	0.733	0.657	0.645	0.689	0.735	0.684	0.714	0.611	0.537	0.534	0.514	0.979	1.08	0.94	1.01	0.896
NCI-H2009	0.32	0.239	0.201	0.226	0.322	1.27	1.23	1.11	1.17	1.06	1.09	1.04	1.12	0.973	0.998	0.772	0.697	0.727	0.664	0.663
NCI-H2023	0.312	0.423	0.4	0.359	0.269	0.622	0.618	0.615	0.548	0.57	0.283	0.251	0.202	0.202	0.196	0.461	0.542	0.406	0.428	0.288
